The values below come from patent US7851590B2, “Y2 selective receptor agonists for therapeutic interventions” (7TM Pharma A/S, priority 2005, dated 2010).

By EC50 is commonly meant the concentration that produces a half-maximal response. In general, Ki refers to the equilibrium dissociation constant of an inhibitor or competing ligand from its target.

Assay [1] addresses T1, rhesus monkey Y2 receptor (Macaca mulatta, UniProt Q9GK74).
T1 sequence (Q9GK74 1-381): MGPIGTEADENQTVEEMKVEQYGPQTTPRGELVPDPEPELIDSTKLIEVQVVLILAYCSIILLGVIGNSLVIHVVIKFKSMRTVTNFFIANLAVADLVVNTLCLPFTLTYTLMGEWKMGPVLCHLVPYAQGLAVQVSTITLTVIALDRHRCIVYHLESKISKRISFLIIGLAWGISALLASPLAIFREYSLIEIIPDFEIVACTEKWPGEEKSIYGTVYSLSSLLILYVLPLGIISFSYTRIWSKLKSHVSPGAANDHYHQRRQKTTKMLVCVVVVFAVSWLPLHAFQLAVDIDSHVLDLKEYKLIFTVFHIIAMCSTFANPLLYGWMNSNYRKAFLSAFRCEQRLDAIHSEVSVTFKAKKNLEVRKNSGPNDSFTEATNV
The assay can be described thus: Rhesus monkey Y2 receptor potency assay (phosphatidylinositol turnover, Gqi5). The format is cell-based. Also on record: The coding region of the rhesus monkey NPY-Receptors (Y1, Y2, Y4) were sub-cloned into the pcDNA3.1/Zeo vector; expressed in transfected cells; host or cells: COS-7 cells, transiently transfected. As to conditions: COS-7 cells transiently transfected with rhesus monkey Y2 receptor and Gqi5; μM; read-out: IP3 EC50 values at Y2. The method, then: Determinations are made in duplicates. EC50 values were calculated using a standard pharmacological data handling software, Prism 3.0 (graphPad Sofware, San Diego, USA).

The target in assay [2] is T1, rhesus monkey Y2 receptor. The experiment in a line: Rhesus monkey Y2 receptor affinity assay (competition binding with human 125I-PYY). Further details: The coding region of the rhesus monkey NPY-Receptors (Y1, Y2, Y4) were sub-cloned into the pcDNA3.1/Zeo vector; expressed in transfected cells; host or cells: CHO cells, stably transfected. As to conditions: CHO cells stably transfected with the rhesus monkey Y2 receptor; 12 pM human 125I-PYY, 3 hours at 4 C; read-out: Competition binding w 126I-PYY at Y2 (Ki). The method, then: The stable transfected CHO cells are transferred to 48-well culture plates one day prior assay at a density of 2,500 cells per well aiming at 5-8% binding of the radioactive ligand. […] Cells are washed twice in 0.5 ml of ice-cold buffer and 0.5-1 ml of lysis buffer (8 M Urea, 2% NP40 in 3 M acetic acid) is added and the bound radioactivity is counted in a gamma counter. Determinations are made in triplicates.

Turning to `CC[C@H](C)[C@H](NC(=O)[C@H](Cc1ccc(O)cc1)NC(=O)[C@H](CCCNC(=N)N)NC(=O)[C@H](CCCNC(=N)N)NC(=O)[C@H](CC(C)C)NC(=O)[C@H](CC(=O)O)NC(=O)[C@H](C)NC(=O)[C@H](C)NC(=O)[C@H](Cc1ccc(O)cc1)NC(=O)[C@H](CCC(N)=O)NC(=O)[C@H](C)NC(=O)[C@H](CCSC)NC(=O)[C@H](CCC(N)=O)NC(=O)[C@H](CCC(=O)O)NC(=O)[C@@H]1CCCN1C(=O)[C@@H](NC(=O)[C@H](C)NC(=O)[C@H](CC(N)=O)NC(=O)[C@H](CC(=O)O)NC(=O)CNC(=O)[C@@H]1CCCN1C(=O)[C@H](Cc1ccc(O)cc1)NC(=O)[C@@H](NC(=O)[C@@H]1CCCN1C(=O)[C@H](CCC(=O)O)NC(=O)[C@H](CC(C)C)NC(=O)[C@@H]1CCCN1C(=O)[C@H](C)N)C(C)C)[C@@H](C)O)C(=O)N[C@@H](CC(N)=O)C(=O)N[C@@H](CCSC)C(=O)N[C@@H](CC(C)C)C(=O)N[C@H](C(=O)N[C@@H](CCCNC(=N)N)C(=O)N1CCC[C@H]1C(=O)N[C@@H](CCCNC(=N)N)C(=O)N[C@@H](Cc1ccc(O)cc1)C(N)=O)[C@@H](C)O` [PP, Pancreatic Polypeptide], in assay [1], the EC50 was more than 1 µM. Further, in assay [2], the inhibition constant (Ki) was more than 1 µM.
